Several values for one entry are separate records, joined by “and”; a condition that tells them apart may be missing. Equal entries are not always repeated.
Experiments:
GluA4 homomeric channels [1] = target: T1, GluA4 homomeric channels (Rattus norvegicus, UniProt P19493); test: Whole-cell current recording with fast solution flow (dose-response, desensitization) in transfected HEK-293 cells; format: cell-based
T1 construct: expressed in transfected cells; host or cells: HEK-293S
Description: (§1) The γ-2 and γ-4 plasmids were generously provided by Prof. Susumu Tomita. The flip isoform of GluA4[30] with and without a TARP was transiently expressed in HEK-293S cell. The tissue culture and transfection procedure were described before. In brief, HEK-293S cells were cultured in Dulbecco’s modified Eagle’s medium supplemented with 10% fetal bovine serum, 100 U/mL penicillin, and 100 μg/mL streptomycin in a 37 °C, 6% CO2, humidified incubator. In co-transfecting a TARP, we used 1:1 and 1:2 weight ratio of the plasmid of GluA4 to a TARP (GluA4 plasmid was 3–6 μg/35 mm dish). Co-transfection also included green fluorescent protein (GFP) and large T-antigen (TAg)[46]. We also added a 2,3-benzodiazepine inhibitor[47] after transfection to prevent cell toxicity due to transfection of TARP. Transfected cells were grown for >48 h before recording.
(§2) Briefly, the pipet solution or internal solution contained (in mM) 110 CsF, 30 CsCl, 4 NaCl, 0.5 CaCl2, 5 EGTA, and 10 HEPES (pH 7.4 adjusted by NaOH). The external cellular solution or bath solution contained (in mM) 150 NaCl, 3 KCl, 1 CaCl2, 1 MgCl2, and 10 HEPES (pH 7.4 adjusted by NaOH)[46]. The GFP fluorescence in transfected cells was visualized on an Axiovert S100 microscope with a fluorescent detection system from Carl Zeiss. The whole-cell current was recorded using an Axopatch-200B amplifier at a cutoff frequency of 2–20 kHz by a built-in, four-pole Bessel filter and digitized at 5–50 kHz sampling frequency using an Axon Digidata 1322 A. Unless otherwise noted, all experiments were performed with transfected HEK-293S cells voltage-clamped at −60 mV and at 22 °C.
(§3) The laser-pulse photolysis technique was used to measure the channel-opening kinetic constants of an AMPA receptor, as we previously reported. […] A Minilite II pulsed Q-switched Nd:YAG laser (Continuum, Santa Clara, CA) delivered single pulses at 355 nm with a pulse length of 8 ns.
(§4) Based on this general, minimal mechanism of channel opening, Eq. 1 was derived. In Eq. 1, IA is the observed amplitude of macroscopic current amplitude, IM is the current per mole of receptor, RM the number of moles of receptors on the cell surface, and Φ^−1 the channel opening equilibrium constant. A non-linear regression was performed to determine K1, along with other parameters, from a dose-response relationship. Each of the current traces was corrected for desensitization before it was used in calculating dose-response relationship[48].1 IA=IMRML^n/L^n+Φ(L+K1)^n

GluA4/γ2 [2] = target: T2, GluA4/γ2 (Rattus norvegicus, UniProt P19493); test: as above; format: cell-based
T2 construct: expressed in transfected cells; host or cells: HEK-293S
Description: as §1, §2, §3, §4

GluA4/γ4 [3] = target: T3, GluA4/γ4 (Rattus norvegicus, UniProt P19493); test: as above; format: cell-based
T3 construct: expressed in transfected cells; host or cells: HEK-293S
Description: as §1, §2, §3, §4

GluA4 homomeric channels [4] = target: T1, GluA4 homomeric channels; test: Laser-pulse photolysis of caged glutamate with whole-cell current recording (channel-opening kinetics); format: cell-based; settings: linear fit of kobs vs glutamate concentration, Eq. 3, ±SEM
Description: as §1, §2, §3
(§5) The kop and kcl values were determined from the rising phase of a whole-cell current trace in a laser-pulse photolysis experiment. […] The observed first-order rate constant of channel opening, kobs, was estimated by using Eq. 22 It=Imax(1−e^−kobst) where It and Imax represent the whole-cell current amplitude at time t, and the maximum current amplitude, respectively. Based on the general mechanism of channel opening, Eq. 3 was derived to describe the relationship between kobs and ligand concentration:3 kobs=kcl+kop(L/L+K1)^n
(§6) In deriving Eq. 3, we assumed the rate of ligand binding was fast relative to the rate of channel opening.

GluA4/γ2 [5] = target: T2, GluA4/γ2; test: as above; format: cell-based
Description: as §1, §2, §3, §5, §6

GluA4/γ4 [6] = target: T3, GluA4/γ4; test: as above; format: cell-based
Description: as §1, §2, §3, §5, §6

GluA4 homomeric channels [7] = target: T1, GluA4 homomeric channels; parameters: method as in PMID 15823042; settings: GluA4 alone; cited from earlier work
[8] = best fit of dose-response with Eq. 1
[9] = mean ±SD, saturated whole-cell responses evoked by 10 and 20 mM glutamate, HEK-293S, −60 mV, 22 °C
[10] = Table S2A nonlinear fitting, kcl fixed 1000 s-1
[11] = Table S2A nonlinear fitting, kcl fixed 1200 s-1
[12] = Table S2A nonlinear fitting, kcl fixed 1400 s-1
[13] = linear fit of kobs vs glutamate concentration, Eq. 3, ±SEM
[14] = Table S3A nonlinear fitting, kcl fixed 900 s-1
[15] = Table S3A nonlinear fitting, kcl fixed 1100 s-1
[16] = Table S3A nonlinear fitting, kcl fixed 1300 s-1

T1 sequence (P19493 21-902 isoform P19493-2 limits assumed): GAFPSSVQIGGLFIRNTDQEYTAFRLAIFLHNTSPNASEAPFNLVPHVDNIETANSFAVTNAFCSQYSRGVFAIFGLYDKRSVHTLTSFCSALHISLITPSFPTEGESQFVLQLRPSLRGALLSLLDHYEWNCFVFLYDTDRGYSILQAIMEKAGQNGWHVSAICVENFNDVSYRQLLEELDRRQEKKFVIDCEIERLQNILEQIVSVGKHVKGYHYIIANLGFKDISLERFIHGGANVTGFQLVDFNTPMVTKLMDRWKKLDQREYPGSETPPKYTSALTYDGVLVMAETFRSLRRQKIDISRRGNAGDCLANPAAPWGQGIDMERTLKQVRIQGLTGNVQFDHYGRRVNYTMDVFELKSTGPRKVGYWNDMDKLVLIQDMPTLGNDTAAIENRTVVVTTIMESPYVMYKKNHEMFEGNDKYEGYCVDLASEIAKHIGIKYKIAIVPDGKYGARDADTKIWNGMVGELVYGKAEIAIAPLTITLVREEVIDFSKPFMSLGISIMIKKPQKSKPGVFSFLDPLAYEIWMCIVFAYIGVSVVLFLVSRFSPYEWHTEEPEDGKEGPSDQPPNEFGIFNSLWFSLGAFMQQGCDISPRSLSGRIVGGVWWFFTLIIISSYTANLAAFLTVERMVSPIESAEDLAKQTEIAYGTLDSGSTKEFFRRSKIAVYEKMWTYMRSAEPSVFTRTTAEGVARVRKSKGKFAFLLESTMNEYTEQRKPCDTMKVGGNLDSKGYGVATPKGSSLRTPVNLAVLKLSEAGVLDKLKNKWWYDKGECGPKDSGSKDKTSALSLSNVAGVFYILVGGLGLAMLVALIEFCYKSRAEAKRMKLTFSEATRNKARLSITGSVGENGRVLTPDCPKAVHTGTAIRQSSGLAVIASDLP
T2 sequence (P19493 21-902 isoform P19493-2 limits assumed): as above
T3 sequence (P19493 21-902 isoform P19493-2 limits assumed): as above

With `N[C@@H](CCC(=O)O)C(=O)O` [glutamate] the “Φ (Φ^−1 = channel opening equilibrium constant)” value (GluA4 homomeric channels [1]; [8]) was 0.36 ± 0.88, the “Hill Coefficient” value (GluA4 homomeric channels [1]; dose-response curve) was 2.18 ± 0.21 and the “kdes (maximum desensitization rate constant)” value (shortened to “kdes”) (GluA4 homomeric channels [1]; [9]) was 181 ± 7 s⁻¹. The “Φ (Φ^−1 = channel opening equilibrium constant)” value (GluA4/γ2 [2]; [8]) was 0.41 ± 0.95, the “Hill Coefficient” value (GluA4/γ2 [2]; dose-response curve) was 1.07 ± 0.14 and the “kdes” value (GluA4/γ2 [2]; [9]) was 135 ± 11 s⁻¹. The “Φ (Φ^−1 = channel opening equilibrium constant)” value (GluA4/γ4 [3]; [8]) was 0.39 ± 1.36, the “Hill Coefficient” value (GluA4/γ4 [3]; dose-response curve) was 1.08 ± 0.10 and the “kdes” value (GluA4/γ4 [3]; [9]) was 90 ± 12 s⁻¹. The “kcl (channel-closing rate constant)” value (GluA4 homomeric channels [4]) was 3.4 ± 0.1 x 10^3 s^−1 and 3.39 ± 0.11 x 10^3 s^−1, the “kop (channel-opening rate constant)” value (GluA4 homomeric channels [4]) was 6.4 ± 0.4 x10^4 s^−1 and 6.41 ± 0.44 x10^4 s^−1 and the “Popen (channel-opening probability)” value (GluA4/γ2 [5]; Popen = kop/(kop + kcl)) was ~ 0.93. The “kop, final output Ave.” value (GluA4/γ2 [5]; [10]) was 17591 s⁻¹, the “n, final output Ave.” value (GluA4/γ2 [5]; [10]) was 1.59 and the “kop, final output Ave.” value (GluA4/γ2 [5]; [11]) was 19225 s⁻¹. For the same compound, the “n, final output Ave.” value (GluA4/γ2 [5]; [11]) was 1.88, the “kop, final output Ave.” value (GluA4/γ2 [5]; [12]) was 22936 s⁻¹ and the “n, final output Ave.” value (GluA4/γ2 [5]; [12]) was 2.11. The “kop, final output Ave.” value (GluA4/γ2 [5]; Table S2B nonlinear fitting, n fixed 2, kcl fixed 1000 s-1) was 15488 s⁻¹, the “kop, final output Ave.” value (GluA4/γ2 [5]; Table S2B nonlinear fitting, n fixed 2, kcl fixed 1200 s-1) was 15607 s⁻¹ and the “kop, final output Ave.” value (GluA4/γ2 [5]; Table S2B nonlinear fitting, n fixed 2, kcl fixed 1400 s-1) was 18961 s⁻¹. The “kcl (channel-closing rate constant)” value (GluA4/γ2 [5]; [13]) was 1.2 ± 0.1 x 10^3 s^−1 and 1.17 ± 0.11 x 10^3 s^−1, the “kop (channel-opening rate constant)” value (GluA4/γ2 [5]; [13]) was 1.3 ± 0.1 x10^4 s^−1 and 1.32 ± 0.12 x10^4 s^−1 and the “Popen (channel-opening probability)” value (GluA4/γ4 [6]; Popen = kop/(kop + kcl)) was ~ 0.93. The “kop, final output Ave.” value (GluA4/γ4 [6]; [14]) was 16862 s⁻¹, the “n, final output Ave.” value (GluA4/γ4 [6]; [14]) was 1.99 and the “kop, final output Ave.” value (GluA4/γ4 [6]; [15]) was 16375 s⁻¹. The “n, final output Ave.” value (GluA4/γ4 [6]; [15]) was 2.20, the “kop, final output Ave.” value (GluA4/γ4 [6]; [16]) was 15640 s⁻¹ and the “n, final output Ave.” value (GluA4/γ4 [6]; [16]) was 2.41. The “kop, final output Ave.” value (GluA4/γ4 [6]; Table S3B nonlinear fitting, n fixed 2, kcl fixed 900 s-1) was 15152 s⁻¹, the “kop, final output Ave.” value (GluA4/γ4 [6]; Table S3B nonlinear fitting, n fixed 2, kcl fixed 1100 s-1) was 13642 s⁻¹ and the “kop, final output Ave.” value (GluA4/γ4 [6]; Table S3B nonlinear fitting, n fixed 2, kcl fixed 1300 s-1) was 11557 s⁻¹. The “kcl (channel-closing rate constant)” value (GluA4/γ4 [6]; [13]) was 1.1 ± 0.1 x 10^3 s^−1 and 1.08 ± 0.05 x 10^3 s^−1, the “kop (channel-opening rate constant)” value (GluA4/γ4 [6]; [13]) was 1.7 ± 0.2 x10^4 s^−1 and 1.70 ± 0.15 x10^4 s^−1 and the “Popen (channel-opening probability)” value (GluA4 homomeric channels [7]) was 0.96.
